How the values were obtained:
[1] = Thiol reactivity by incubation with excess thiol, HPLC-UVvis; assay type: physicochemical
Protocol: FIGS. 5A-5B: Thiol reactivity was analyzed via incubations containing 31b (250 μM) in the presence or absence of excess (5 mM) cysteine (or N-acetylcysteine [NAc]) in PBS (50 mM, pH
7.4) at 37° C. (FIG. 5A). Incubations were placed in a temperature controlled HPLC autosampler and aliquots are analyzed by HPLC-UVvis periodically for 2-24 hr. Percent furoxan remaining was determined based on the area under the curve (AUC) of the HPLC UV-absorbance spectrum. Similarly, rat liver microsomes were incubated with 31b in the presence or absence of NADPH to determine microsomal stability (FIG. 5B). Warfarin and verapamil were used as slow and fast metabolizing controls.
Without wishing to be bound by theory, it is believed that furoxans require thiol attack to produce NO. […] Thiol reactivity of 31b was assessed via incubations with excess thiol (N-acetylcysteine [NAc]) at physiological pH and temperature using a temperature controlled HPLC autosampler. […]
HPLC method: solvents, H2O [0.1% FA]—solvent A; MeOH [0.1% FA]—solvent B; flow rate 1.0 mL/min. […] As described above, thiol reactivity was analyzed via incubations containing the furoxan (250 μM) in the presence or absence of excess (5 mM) cysteine (or N-acetylcysteine [NAc]) in PBS (50 mM, pH 7.4) at 37° C. Incubations were placed in a temperature controlled HPLC autosampler and aliquots were analyzed by HPLC-UVvis periodically for 2-24 hr. […]

[2] = In vivo pharmacokinetics, plasma and forebrain levels by LC-MS/MS; design: species or system mice
Protocol: FIGS. 6A-6C: The ratio of the AUC of the MRM transition for 31b versus 41b was calculated and the resulting values were normalized based on total protein concentration of samples (determined by Bradford assay). N=4 per group. Data shown as SEM, analysis by one way ANOVA with Tukey's post-test. *=p<0.05. Half-life's were calculated based on first order exponential decay.
31b was administered to mice and specimens were processed according to FIG. 4A. Levels of 31b were determined in the plasma and forebrain after intraperitoneal (ip) and oral (po) administration at varying post-administration time points (1, 2, or 12 hr [N=4 per cohort]). […] A deuterated (d^4) analog of 31b, designated 41b, was synthesized for LC-MS studies. Deuterated internal standards are required for absolute quantitation via LC-MS/MS and are desirable for because they have identical physiochemical properties to their non-deuterated kin, but may be distinguished based on molecular weight. Inclusion of 41b allows for control of extraction efficiency, technique proficiency, and instrumentation sensitivity. Extraction methodology and tandem LC-MS/MS parameters (optimized MRM transitions) were developed and validated via extraction of blank brain tissue spiked with 31b and 41b to develop a calibration curve. In this initial evaluation, the appropriate forebrain and plasma samples were spiked with a fixed concentration of 41b, homogenized in extraction buffer, applied to a solid phase resin cartridge, eluted, concentrated, reconstituted, and analyzed via MRM monitoring using LC-MS/MS. […] There were no significant differences in levels of 31b in the brain (B) versus plasma (P), with an average B:P ratio of 1.6 (±0.8). […] Without wishing to be bound by theory, it is believed that low oral bioavailability of 31b is the result of rapid 1st pass metabolism, since the microsomal stability studies indicate poor hepatic stability. The use of common dosage form strategies likely results in improved oral bioavailability. Alternative administration routes, including intranasal, are also believed to result in high brain bioavailability based on the relativity high lipophilicity of the embodiments tested. […] Moreover, the physiochemical properties proposed as being appropriate for CNS drugs are appropriate. The long residence time of the furoxan (visible in the brain after 12 hr), indicates an ideal scenario for daily dosing.
Forebrain tissue (˜30 mg) was homogenized in 1 ml of tissue extraction buffer (Invitrogen) containing a protease inhibitor cocktail (PIC). 100 μL of the resulting homogenate (or 100 μL of plasma) was spiked with 2% Formic acid (200 μL, containing 41b [0.5 μM]—internal standard) and vortexed for 1 min. The mixture was applied to an Evolute Express ABN column (Biotage) and filtered through via vacuum filtration. The matrix was washed with dH2O (1 mL) and analytes eluted with MeOH (1 mL). The resulting extract was evaporated to dryness by passing over air and reconstituted in ACN/dH2O (100 μL). A 10 μL injection was analyzed by LC-MS/MS. Analysis was carried out on a Shimadzu Nexera XR HPLC coupled with a Shimadzu 8050 triple quadrupole mass spectrometer. LC utilized a Kinetex-core column (Phenomenex): 2.6 um C18 100 A, 100×4.6 mm. HPLC Method: solvents, H2O [0.1% FA]—solvent A; MeOH [0.1% FA]—solvent B; flow rate 1.0 mL/min (utilized Tsplitter, mass spectrometer effective flow rate 0.4 mL/min). Gradient: t=2 min, 5% B; t=6 min, 95% B; t=7.0 min, 95% B; t=7.01, 5% B. Stop time 10 min. Diverter valve was utilized and eluent only averted to MS from 5 min-8 min. Quantity was determined based on the AUC of the internal standard versus the AUC of the analyte peak.

[3] = tested on: CREB phosphorylation at Ser-133; assay: In vivo pharmacodynamics, hippocampal pCREB:tCREB by ELISA; conditions: scopolamine treated mice plus 31b 20 or 40 mg/kg ip

SMILES: CC1CCN(Cc2no[n+]([O-])c2-c2ccc(F)cc2)CC1 [31b]
- Stability in the presence of general cellular thiols, such as GSH and cysteine [1]: extremely stable
- Change in amount of furoxan with excess thiol ([1]; 250 μM, 5 mM N-acetylcysteine, PBS pH 7.4, 37° C., after 24 hr): no measurable change
- Amounts in ip-treated mice compared to oral gavage ([2]; mice): significantly higher amounts in ip-treated mice
- Levels in plasma and forebrain after 12 h ([2]; mice, ip and po): detectable levels
- Oral bioavailability ([2]; mice, po): low
- Kp ([2]; mouse, forebrain versus plasma, other: intraperitoneal (ip) and oral (po), averaged together, mice, read-out: Average B:P ratio (brain versus plasma)): 1.6
- Brain penetration ([2]; mouse, in vivo): significant brain penetration
- half-life ([2]; mouse, plasma and forebrain, intraperitoneal and oral, mice, ip and po, first order exponential decay, read-out: In vivo t1/2 for brain and plasma): 0.833 to 1.83 h
- Hippocampal pCREB:tCREB ratio [3]: trends toward reversal

From patent US10913732B2, “Furoxans as therapies for neurodegenerative disorders” (The University of Toledo, priority 2016, dated 2021)
